Reference: patent publication EP1746087A1, “Derivates of 3-indolylmethylene having cytostatic properties” (Universitaet Regensburg, priority 2005, dated 2007)
“And” between values parts separate entries of the source, which are not always exact repeats. Equal values may be shown once. Read-outs that look alike come from different tables or passages of the source. Each block holds one compound with its values, some of them ahead of it.

Legend:
Format in all cases: cell-based, menschlich
[1] = system: MDA-MB-231-Mammacarcinomzellen; test: Flow-cytometric analysis of cell cycle distribution
Source text: (§1) Die cytostatische Wirkung der erfindungsgemäßen Verbindungen wurde an zwei verschiedenen menschlichen Mammacarcinomzellinien in vitro bestimmt (M. Goldbrunner et al., J.Med.Chem. 1997,40,3525). Es handelt sich dabei um die hormonunabhängige MDA-MB-231-Zellinie und die estrogensensitive MCF-7-Linie. Die MDA-MB-231-Zellen wurden auch für die durchflusszytometrischen Analysen zur Zellzyklusverteilung herangezogen (M.J.J. Jaroszeski und R. Heller, Flow Cytometry Protocols, Humana Press, 1998, Totowa New Jersey). Besonders überraschend war, dass diese synthetischen Verbindungen häufig bereits im Konzentrationsbereich von 10 bis 100 nanomolar das Wachstum von menschlichen Tumorzellen stark hemmen, obwohl sie nur ein relativ niedriges Molekulargewicht aufweisen (MG ~ 320 - 500) (Tabelle 2 und 3, Abb. 2). Potente Therapeutika, die ebenfalls in den Zellzyklus eingreifen, besitzen Molekulargewichte im Bereich von 825 (Vincristin als Base) und 850 (Paclitaxel).

[2] = system: MDA-MB-231-Brustkrebszellen; test: Growth inhibition of MDA-MB-231 breast cancer cells in vitro (cytostatic effect); details: MDA-MB-231 cells, read-out: IC50 Hemmwirkung auf das Wachstum
Source text: as §1

[3] = system: MCF-7-Mammacarcinomzellen; test: Growth inhibition of MCF-7 mammary carcinoma cells in vitro (cytostatic effect); details: MCF-7 cells, read-out: IC50 Hemmwirkung auf das Wachstum
Source text: as §1

SMILES: COc1ccc(-c2[nH]c3ccc(C)cc3c2C=C(C#N)C#N)cc1 [Verbindung 1, [2-(4-Methoxyphenyl)-5-methyl-indol-3-yl]-methylenpropandinitril]
Debris % ([1]; Konz. 0.5 µM): 7.8% | G1/G0 % ([1]; Konz. 0.5 µM): 41.0% | G2/M % ([1]; Konz. 0.5 µM): 32.0% | S % ([1]; Konz. 0.5 µM): 19.2% | Debris % ([1]; Konz. 1.0 µM): 16.4% | G1/G0 % ([1]; Konz. 1.0 µM): 16.9% | G2/M % ([1]; Konz. 1.0 µM): 45.4% | S % ([1]; Konz. 1.0 µM): 21.3% | Debris % ([1]; Konz. 5.0 µM): 6.4% | G1/G0 % ([1]; Konz. 5.0 µM): 9.8% | G2/M % ([1]; Konz. 5.0 µM): 57.7% | S % ([1]; Konz. 5.0 µM): 26.1% | IC50 ([2]; Homo sapiens): 280 nM | IC50 ([3]; Homo sapiens, MCF7): 200 nM

SMILES: COc1ccc(-c2[nH]c3cc(Cl)c(C)cc3c2C=C(C#N)C#N)cc1 [Verbindung 2, [6-Chlor-2-(4-methoxyphenyl)-5-methyl-indol-3-yl]-methylenpropandinitril]
IC50 [2]: 75 nM | IC50 [3]: 200 nM

SMILES: COc1ccc2c(C=C(C#N)C#N)c(-c3ccc(C)cc3)[nH]c2c1 [Verbindung 3, [6-Methoxy-2-(4-methylphenyl)-indol-3-yl]-methylenpropandinitril]
IC50 ([2]; Homo sapiens): 180 nM | IC50 ([3]; Homo sapiens, MCF7): 250 nM

SMILES: COc1ccc(-c2[nH]c3ccc(F)cc3c2C=C(C#N)C#N)cc1 [Verbindung 4, [5-Fluor-2-(4-methoxyphenyl)-indol-3-yl]methylenpropandinitril]
IC50 [2]: 400 nM

SMILES: CCCc1ccc2[nH]c(-c3ccc(OC)cc3)c(C=C(C#N)C#N)c2c1 [Verbindung 5, [2-(4-Methoxyphenyl)-5-n-propyl-indol-3-yl]-methylenpropandinitril]
IC50 ([2]; Homo sapiens): 83 nM

SMILES: COc1ccc(-c2[nH]c3cc(C(C)C)ccc3c2C=C(C#N)C#N)cc1 [Verbindung 6, [6-Isopropyl-2-(4-methoxyphenyl)-indol-3-yl]methylenpropandinitril]
IC50 ([2]; Homo sapiens): 210 nM | IC50 ([3]; Homo sapiens, MCF7): 310 nM

SMILES: CCCCc1ccc2[nH]c(-c3ccc(OC)cc3)c(C=C(C#N)C#N)c2c1 [Verbindung 7, [5-n-Butyl-2-(4-methoxyphenyl)-indol-3-yl]-methylenpropandinitril]
IC50 ([2]; Homo sapiens): 13 nM | IC50 ([3]; Homo sapiens, MCF7): 13 nM

SMILES: CCCCCc1ccc2[nH]c(-c3ccc(OC)cc3)c(C=C(C#N)C#N)c2c1 [Verbindung 8, [2-(4-Methoxyphenyl)-5-n-pentyl-indol-3-yl]-methylenpropandinitril]
IC50 ([2]; Homo sapiens): 42 nM | IC50 ([3]; Homo sapiens, MCF7): 76 nM

SMILES: COc1ccc(-c2[nH]c3cc(OC)ccc3c2C=C(C#N)C#N)cc1 [Verbindung 10, [6-Methoxy-2-(4-methoxyphenyl)-indol-3-yl]methylenpropandinitril]
IC50 ([2]; Homo sapiens): 260 nM

SMILES: COc1ccc(-c2[nH]c3ccccc3c2C=C(C#N)C#N)cc1 [Verbindung 11, [2-(4-Methoxyphenyl)-indol-3-yl]-methylenpropandinitril]
IC50 ([2]; Homo sapiens): 720 nM

SMILES: COc1cccc(-c2[nH]c3ccc(OC)cc3c2C=C(C#N)C#N)c1 [Verbindung 12, [5-Methoxy-2-(3-methoxyphenyl)-indol-3-yl]-methylenpropandinitril]
IC50 ([2]; Homo sapiens): 970 nM

SMILES: CCCCc1ccc2[nH]c(-c3ccc(C(F)(F)F)cc3)c(C=C(C#N)C#N)c2c1 [Verbindung 13, {5-Butyl-2-[4-(trifluormethyl)-phenyl]-indol-3-yl}methylenpropandinitril]
Debris % ([1]; Konz. 0.01 µM): 2.9% | G1/G0 % ([1]; Konz. 0.01 µM): 52.7% | G2/M % ([1]; Konz. 0.01 µM): 22.1% | S % ([1]; Konz. 0.01 µM): 22.9% | Debris % ([1]; Konz. 0.05 µM): 3.0% | G1/G0 % ([1]; Konz. 0.05 µM): 52.3% | G2/M % ([1]; Konz. 0.05 µM): 22.1% | S % ([1]; Konz. 0.05 µM): 22.6% | Debris % ([1]; Konz. 0.1 µM): 13.3% | G1/G0 % ([1]; Konz. 0.1 µM): 52.6% | G2/M % ([1]; Konz. 0.1 µM): 12.2% | S % ([1]; Konz. 0.1 µM): 22.3% | Debris % ([1]; Konz. 0.5 µM): 5.5% | G1/G0 % ([1]; Konz. 0.5 µM): 5.4% | G2/M % ([1]; Konz. 0.5 µM): 76.3% | S % ([1]; Konz. 0.5 µM): 9.2% | IC50 [2]: 56 nM

SMILES: CCCCc1ccc2[nH]c(-c3ccc(C)cc3)c(C=C(C#N)C#N)c2c1 [Verbindung 14, [5-Butyl-2-(4-methylphenyl)-indol-3-yl]-methylenpropandinitril]
Debris % ([1]; Konz. 0.05 µM): 2.5% | G1/G0 % ([1]; Konz. 0.05 µM): 52.7% | G2/M % ([1]; Konz. 0.05 µM): 22.4% | S % ([1]; Konz. 0.05 µM): 24.0% | Debris % ([1]; Konz. 0.1 µM): 3.3% | G1/G0 % ([1]; Konz. 0.1 µM): 50.6% | G2/M % ([1]; Konz. 0.1 µM): 21.9% | S % ([1]; Konz. 0.1 µM): 24.6% | Debris % ([1]; Konz. 0.5 µM): 24.5% | G1/G0 % ([1]; Konz. 0.5 µM): 16.7% | G2/M % ([1]; Konz. 0.5 µM): 41.5% | S % ([1]; Konz. 0.5 µM): 15.6% | Debris % ([1]; Konz. 1.0 µM): 19.1% | G1/G0 % ([1]; Konz. 1.0 µM): 6.1% | G2/M % ([1]; Konz. 1.0 µM): 64.2% | S % ([1]; Konz. 1.0 µM): 10.3% | IC50 ([2]; Homo sapiens): 65 nM

SMILES: CCCCc1ccc2[nH]c(-c3ccc(CC)cc3)c(C=C(C#N)C#N)c2c1 [Verbindung 15, [5-Butyl-2-(4-ethylphenyl)-indol-3-yl]-methylenpropandinitril]
Debris % ([1]; Konz. 0.01 µM): 5.0% | G1/G0 % ([1]; Konz. 0.01 µM): 53.6% | G2/M % ([1]; Konz. 0.01 µM): 21.8% | S % ([1]; Konz. 0.01 µM): 20.0% | Debris % ([1]; Konz. 0.05 µM): 6.6% | G1/G0 % ([1]; Konz. 0.05 µM): 50.3% | G2/M % ([1]; Konz. 0.05 µM): 19.8% | S % ([1]; Konz. 0.05 µM): 24.2% | Debris % ([1]; Konz. 0.1 µM): 8.6% | G1/G0 % ([1]; Konz. 0.1 µM): 51.8% | G2/M % ([1]; Konz. 0.1 µM): 18.9% | S % ([1]; Konz. 0.1 µM): 20.7% | Debris % ([1]; Konz. 0.5 µM): 23.2% | G1/G0 % ([1]; Konz. 0.5 µM): 5.7% | G2/M % ([1]; Konz. 0.5 µM): 62.8% | S % ([1]; Konz. 0.5 µM): 6.3% | IC50 ([2]; Homo sapiens): 79 nM

SMILES: CC[C@]1(O)C[C@H]2CN(CCc3c([nH]c4ccccc34)[C@@](C(=O)OC)(c3cc4c(cc3OC)N(C=O)[C@H]3[C@@](O)(C(=O)OC)[C@H](OC(C)=O)[C@]5(CC)C=CCN6CC[C@]43[C@@H]65)C2)C1 [Vincr., Vincristin, reference compound]
G1/G0 % ([1]; Konz. 0.1 µM): 6.2% and 4.5% and 5.1% and 9.3% and 10.2% and 11.4% and 8.1% | G2/M % ([1]; Konz. 0.1 µM): 67.0% and 76.0% and 60.7% and 53.8% and 61.0% and 48.4% and 54.1%

The next lines start with results.

IC50 [2]: 78 nM
SMILES: CCCCCc1ccc2[nH]c(-c3ccc(C(F)(F)F)cc3)c(C=C(C#N)C#N)c2c1 [Verbindung 16, {5-Pentyl-2-[4-(trifluormethyl)-phenyl]-indol-3-yl}-methylenepropandinitril]

IC50 [2]: 150 nM
SMILES: CCCCCCc1ccc2[nH]c(-c3ccc(C(F)(F)F)cc3)c(C=C(C#N)C#N)c2c1 [Verbindung 17, {5-Hexyl-2-[4-(trifluormethyl)phenyl]-indol-3yl}-methylenpropandinitril]

IC50 [2]: 200 nM
SMILES: CCCCc1ccc2[nH]c(-c3ccc(OC)cc3)c(C=C(C#N)C(=O)O)c2c1 [Verbindung 18, 3-[5-n-Butyl-2-(4-methoxyphenyl-)indol-3-yl]-2-cyanoacrylsäure]

IC50 ([2]; Homo sapiens): 1000 nM
SMILES: COc1ccc(-c2[nH]c3cc(OC)ccc3c2C=NNc2ccccc2)cc1 [Verbindung 21, 6-Methoxy-2-(4-methoxyphenyl)-indol-3-carbaldehyd-phenylhydrazon]

IC50 ([2]; Homo sapiens): 32 nM
SMILES: CCCCc1ccc2[nH]c(-c3ccc(OC)cc3)c(C=NNC(=O)c3ccccc3)c2c1 [Verbindung 22, 5-n-Butyl-2-(4-methoxyphenyl)-indol-3-carbaldehyd-benzoylhydrazon]
IC50 ([3]; Homo sapiens, MCF7): 130 nM

IC50 [2]: 90 nM
SMILES: CCCCc1ccc2[nH]c(-c3ccc(OC)cc3)c(C=NNC(=O)c3ccc(Cl)cc3)c2c1 [Verbindung 23, 5-n-Butyl-2-(4-methoxyphenyl)-indol-3-carbaldehyd-(4-chlorbenzoyl)hydrazon]

IC50 ([2]; Homo sapiens): 53 nM
SMILES: CCCCc1ccc2[nH]c(-c3ccc(CC)cc3)c(C=NNCc3cccnc3)c2c1 [Verbindung 26, 5-Butyl-2-(4-ethylphenyl)-indol-3-carbaldehyd-nicotinylhydrazon]
Debris % ([1]; Konz. 0.01 µM): 3.2% | G1/G0 % ([1]; Konz. 0.01 µM): 51.0% | G2/M % ([1]; Konz. 0.01 µM): 26.3% | S % ([1]; Konz. 0.01 µM): 20.2% | Debris % ([1]; Konz. 0.05 µM): 2.8% | G1/G0 % ([1]; Konz. 0.05 µM): 51.3% | G2/M % ([1]; Konz. 0.05 µM): 22.9% | S % ([1]; Konz. 0.05 µM): 23.7% | Debris % ([1]; Konz. 0.1 µM): 3.4% | G1/G0 % ([1]; Konz. 0.1 µM): 49.2% | G2/M % ([1]; Konz. 0.1 µM): 25.5% | S % ([1]; Konz. 0.1 µM): 23.0% | Debris % ([1]; Konz. 0.5 µM): 12.2% | G1/G0 % ([1]; Konz. 0.5 µM): 9.6% | G2/M % ([1]; Konz. 0.5 µM): 66.9% | S % ([1]; Konz. 0.5 µM): 11.4%

IC50 [2]: 260 nM
SMILES: CCCCc1ccc2[nH]c(-c3ccc(C(F)(F)F)cc3)c(C=NNC(=O)c3ccccn3)c2c1 [Verbindung 27, 5-n-Butyl-2-[4-(trifluormethyl)-phenyl]-indol-3-carbaldehyd-picolinylhydrazon]

IC50 [2]: 94 nM
SMILES: CCCCc1ccc2[nH]c(-c3ccc(C(F)(F)F)cc3)c(C=NNC(=O)c3ccncc3)c2c1 [Verbindung 28, 5-Butyl-2-[4-(trifluormethyl)-phenyl]-indol-3-carbaldehyd-isonicotinylhydrazon]
Debris % ([1]; Konz. 0.05 µM): 3.5% | G1/G0 % ([1]; Konz. 0.05 µM): 49.6% | G2/M % ([1]; Konz. 0.05 µM): 24.2% | S % ([1]; Konz. 0.05 µM): 25.6% | Debris % ([1]; Konz. 0.1 µM): 3.8% | G1/G0 % ([1]; Konz. 0.1 µM): 49.3% | G2/M % ([1]; Konz. 0.1 µM): 24.0% | S % ([1]; Konz. 0.1 µM): 23.7% | Debris % ([1]; Konz. 0.5 µM): 16.7% | G1/G0 % ([1]; Konz. 0.5 µM): 16.9% | G2/M % ([1]; Konz. 0.5 µM): 50.2% | S % ([1]; Konz. 0.5 µM): 15.0%

IC50 ([2]; Homo sapiens): 30 nM
SMILES: CCCCc1ccc2[nH]c(-c3ccc(OC)cc3)c(C=NN3C(=O)c4ccccc4C3=O)c2c1 [Verbindung 29, N-{[5-n-Butyl-2(4-methoxyphenyl)-indol-3-yl]methylenamino}-phthalimid]

IC50 [2]: 850 nM
SMILES: CCCCc1ccc2[nH]c(-c3ccc(C(F)(F)F)cc3)c(C=NNC(N)=O)c2c1 [Verbindung 30, 5-Butyl-2-[4-(trifluormethyl)-phenyl]-indol-3-carbaldehyd-semicarbazon]
